Here are results for one compound from patent publication US9346761B2, “Arginine methyltransferase inhibitors and uses thereof” (Epizyme, Inc., priority 2013, dated 2016).

The target in one test is T1, Full-length human PRMT3 (Homo sapiens, UniProt O60678).
T1 construct: GST-tagged PRMT3; made in house; host or cells: E. coli BL21(DE3) Gold (pGEX-KG)
The test can be described thus: PRMT3 biochemical assay (3H-SAM Flashplate, peptide substrate). The source says: General Materials. S-adenosylmethionine (SAM), S-adenosylhomocysteine (SAH), bicine, Tween20, dimethylsulfoxide (DMSO), bovine skin gelatin (BSG),), isopropyl-β-D-thiogalactopyranoside (IPTG), and Tris(2-carboxyethyl)phosphine hydrochloride solution (TCEP) were purchased from Sigma-Aldrich at the highest level of purity possible. ^3H-SAM was purchase from American Radiolabeled Chemicals with a specific activity of 80 Ci/mmol. 384-well streptavidin Flashplates were purchased from PerkinElmer.
Substrates. Peptide containing the classic RMT substrate motif was synthesized with an N-terminal linker-affinity tag motif and a C-terminal amide cap by 21st Century Biochemicals. The peptide was purified by high-performance liquid chromatography (HPLC) to greater than 95% purity and confirmed by liquid chromatography mass spectrometry (LC-MS). The sequence was Biot-Ahx-[…]-amide (SEQ ID NO.:11).
Molecular Biology: : Full-length human PRMT3 (NM_005788.3) isoform 1 transcript clone was amplified from an HEK 293 cDNA library and subcloned into pGEX-KG (GE Life Sciences). The resulting construct encodes an N-terminal GST tag and a thrombin cleavage sequence ([…] […] […] […]) (SEQ ID NO.:12) fused directly to Cys 2 of PRMT3.
Protein Expression. E. coli (BL21(DE3) Gold, Stratagene) made competent by the CaCl2 method were transformed with the PRMT3 construct and ampicillin selection. Protein over-expression was accomplished by growing the PRMT3 expressing E. coli clone and inducing expression with 0.3 mM IPTG at 16° C. The culture was grown for 12 hours, harvested by centrifugation, and stored at −80° C. for purification.
Protein Purification. […] GST-tagged PRMT3 eluted with 25-400 mM phosphate in buffer C. Protein was concentrated and buffer was exchanged to 20 mM Tris, 150 mM NaCl, 5% glycerol, 5 mM β-mercaptoethanol, pH7.8 by ultrafiltration. The purity of recovered protein was 70%.
General Procedure for PRMT3 Enzyme Assays on Peptide Substrates. The assays were all performed in a buffer consisting of 20 mM Bicine (pH=7.6), 1 mM TCEP, 0.005% BSG, and 0.002% Tween 20, prepared on the day of use. Compounds in 100% DMSO (1 ul) were spotted into a polypropylene 384-well V-bottom plates (Greiner) using a Platemate Plus outfitted with a 384-channel head (Thermo Scientific). DMSO (1 ul) was added to Columns 11, 12, 23, 24, rows A-H for the maximum signal control and 1 ul of SAH, a known product and inhibitor of PRMT3, was added to columns 11, 12, 23, 24, rows I-P for the minimum signal control. A cocktail (40 ul) containing the PRMT3 enzyme was added by Multidrop Combi (Thermo-Fisher). The compounds were allowed to incubate with PRMT3 for 30 min at room temperature, then a cocktail (10 ul) containing SAM and peptide was added to initiate the reaction (final volume=51 ul). The final concentrations of the components were as follows: PRMT3 was 0.5 nM, ^3H-SAM was 100 nM, non-radiolabeled SAM was 1.8 uM, peptide was 330 nM, SAH in the minimum signal control wells was 1 mM, and the DMSO concentration was 2%. The assays were stopped by the addition of potassium chloride (10 ul) to a final concentration of 100 mM. 50 ul of the reaction in the 384-well polypropylene plate was then transferred to a 384-well Flashplate and the biotinylated peptides were allowed to bind to the streptavidin surface for at least 1 hour before being washed once with 0.1% Tween20 in a Biotek ELx405 plate washer. The plates were then read in a PerkinElmer TopCount plate reader to measure the quantity of ^3H-labeled peptide bound to the Flashplate surface, measured as disintegrations per minute (dpm) or alternatively, referred to as counts per minute (cpm).
Where dpm=disintegrations per minute, cmpd=signal in assay well, and min and max are the respective minimum and maximum signal controls.
Where top and bottom are the normally allowed to float, but may be fixed at 100 or 0 respectively in a 3-parameter fit. […]

Test [1] relates to mono-methyl arginine in RKO cells. Nature of the test: RKO methylation assay, In Cell Western for mono-methyl arginine and DNA content. As to conditions: Homo sapiens; In Cell Western, RKO cells, 72 hours, percent activation of mono-methyl arginine signal; read-out: EC30. The test is classed as cell-based.

T1 sequence (O60678 with tags, fused parts or gaps): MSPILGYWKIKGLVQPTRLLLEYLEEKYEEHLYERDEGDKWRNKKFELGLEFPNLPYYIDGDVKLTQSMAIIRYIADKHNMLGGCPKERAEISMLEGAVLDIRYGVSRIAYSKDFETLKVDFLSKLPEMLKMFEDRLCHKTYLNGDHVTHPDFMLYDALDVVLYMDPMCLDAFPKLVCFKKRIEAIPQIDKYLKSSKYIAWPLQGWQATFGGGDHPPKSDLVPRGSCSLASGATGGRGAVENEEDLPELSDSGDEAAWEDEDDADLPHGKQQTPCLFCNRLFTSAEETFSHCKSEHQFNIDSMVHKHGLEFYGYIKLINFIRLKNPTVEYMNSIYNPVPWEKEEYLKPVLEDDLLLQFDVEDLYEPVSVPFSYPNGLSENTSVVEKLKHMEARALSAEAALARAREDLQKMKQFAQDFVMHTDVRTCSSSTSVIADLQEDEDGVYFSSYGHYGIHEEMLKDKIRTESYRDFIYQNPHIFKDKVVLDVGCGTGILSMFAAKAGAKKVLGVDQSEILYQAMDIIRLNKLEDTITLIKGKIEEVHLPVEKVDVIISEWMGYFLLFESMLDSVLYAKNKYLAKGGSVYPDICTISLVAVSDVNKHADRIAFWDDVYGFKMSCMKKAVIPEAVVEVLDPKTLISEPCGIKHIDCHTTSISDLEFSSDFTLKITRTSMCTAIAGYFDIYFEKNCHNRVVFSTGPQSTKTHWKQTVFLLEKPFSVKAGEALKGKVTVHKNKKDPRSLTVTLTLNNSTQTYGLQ

As usually defined, the IC50 is the concentration needed to halve the response being measured. High values mean weaker potency in that assay, low ones greater potency in that assay. The EC30 is the concentration at which the effect reaches the 30% level. For the compound `CC(C)Cc1ccc(-c2n[nH]cc2CN(C)CCN)cc1` [Compound 165], the IC50 against Full-length human PRMT3 was 1.01 to 3 µM. In test [1], the EC30 is less than 3 µM.
